Some test systems named below: HCT-15; MCF7; SNB-75; UACC-257; K562; MDA-MB-435; CAKI-1; A498; MDA-MB-231; OVCAR-3; OVCAR-8; SF-268; RPMI-8226; SF-539; HT-29; COLO 205; HL-60; OVCAR-4; HOP-92.
Assay in all cases: NCI anticancer screen, dose series, 48 h

The structures appear in SMILES notation.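 These data come from cells grown in 96-well plates and exposed to compound for 48 hours at five concentrations. The concentration for 50% growth inhibition is given as GI50.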 Activity calls are given as the source filed them. No stated cut-off is given here; in the data, active = GI50 up to about 1.1 µM and inactive = higher.

For `C=CC(C)(C)c1c(OC)oc2ccc(OC)c(C)c2c1=O`, the GI50 in the test on HCT-15 was 98.2 µM; in the test with MCF7, > 100 µM (inactive); with SNB-75 it was 89.5 µM (inactive); with UACC-257 it was > 100 µM (inactive); in the test with K562, 78.2 µM (inactive); with MDA-MB-435, > 100 µM (inactive). Also, the GI50 with CAKI-1, in the test on A498, in the test on MDA-MB-231, in the test with OVCAR-3, in the test on OVCAR-8 and in the test with SF-268 was > 100 µM (inactive) in each case. Besides, the GI50 in the test with RPMI-8226 was > 100 µM (inactive); in the test with SF-539, > 100 µM (inactive); with HT-29 it was 96.4 µM (inactive); in the test with COLO 205, > 100 µM (inactive); in the test with HL-60, 70.6 µM (inactive).

Take `CCS(=O)(=O)c1c2cc(OC)ccc2nc2ccc(OC)cc12`: the GI50 in the test with HCT-15 was more than 100 µM; in the test on MCF7 it was > 100 µM (inactive); in the test on SNB-75, > 100 µM (inactive); in the test with UACC-257 it was > 100 µM (inactive); in the test on K562, > 100 µM (inactive); with MDA-MB-435, > 100 µM (inactive). For the same compound, the GI50 in the test with CAKI-1, in the test with A498, in the test on MDA-MB-231, in the test with OVCAR-3, in the test with OVCAR-4 and in the test with OVCAR-8 was > 100 µM (inactive) in each case. Moreover, the GI50 is > 100 µM (inactive) with SF-268; > 100 µM (inactive) in the test with HOP-92; 26.5 µM (inactive) with SF-539; > 100 µM (inactive) with HT-29; > 100 µM (inactive) in the test on COLO 205; > 100 µM (inactive) in the test on HL-60.

As for `O[C@H]1[C@H](O)[C@@H](O)[C@@]2(O)C[C@@H](O)[C@@H]1N2`, the GI50 in the test with HCT-15 was more than 100 µM; in the test on MCF7, > 100 µM (inactive); with SNB-75 it was > 100 µM (inactive); with UACC-257, > 100 µM (inactive); in the test with K562, > 100 µM (inactive); in the test with MDA-MB-435, > 100 µM (inactive). The GI50 in the test with A498, in the test on MDA-MB-231, in the test with OVCAR-3, with OVCAR-4, in the test on OVCAR-8 and in the test on SF-268 was > 100 µM (inactive) throughout. The GI50 in the test on HOP-92, with SF-539, in the test on HT-29, in the test with COLO 205 and in the test with HL-60 was > 100 µM (inactive) in each case.

As for `Cc1n[n+]([O-])c(C)cc1[N+](=O)[O-]`, the GI50 in the test with HCT-15 is 15.9 µM; in the test on MCF7, 17.3 µM (inactive); in the test with SNB-75, 23.8 µM (inactive); in the test on UACC-257, 15.6 µM (inactive); with MDA-MB-435, 15.6 µM (inactive); with A498, 18.1 µM (inactive). Besides, the GI50 with MDA-MB-231 was 18.2 µM (inactive); with OVCAR-3 it was 14.5 µM (inactive); in the test on OVCAR-4 it was 19.4 µM (inactive); in the test on OVCAR-8, 15.5 µM (inactive); in the test on SF-268, 46 µM (inactive); in the test on HOP-92, 16.8 µM (inactive). The GI50 with RPMI-8226 was 0.552 µM (active); in the test on SF-539, 27.6 µM (inactive); in the test on HT-29 it was 14.1 µM (inactive); in the test with COLO 205, 13.5 µM (inactive).

With `CC(=O)OC1=CC2=CC[C@H]3[C@@H]4CCC(=O)[C@@]4(C)CC(=O)[C@]3(S)[C@@]2(C)CC1`, the GI50 in the test with HCT-15 was 34.2 µM; with MCF7, 30.6 µM (inactive); in the test with SNB-75, 40.5 µM (inactive); with UACC-257 it was 27.3 µM (inactive); in the test with K562, 25.1 µM (inactive); in the test on MDA-MB-435 it was 30.7 µM (inactive). For the same compound, the GI50 with CAKI-1 is 35.2 µM (inactive); with A498 it was 41.1 µM (inactive); with MDA-MB-231, 26 µM (inactive); with OVCAR-3 it was 22.7 µM (inactive); with OVCAR-4, 57.8 µM (inactive); with OVCAR-8, 31.3 µM (inactive). Besides, the GI50 with SF-268 is 26.7 µM (inactive); with HOP-92, 24.8 µM (inactive); in the test on RPMI-8226, 20.9 µM (inactive); in the test on SF-539, 20 µM (inactive); with HT-29, > 100 µM (inactive); in the test on COLO 205, 32.4 µM (inactive).

Regarding `COC(=O)C1(C(=O)OC)CC2=C(S(=O)(=O)c3ccccc3)C[C@H](C#N)[C@H]2C1`, the GI50 in the test with HCT-15 is 40.6 µM; in the test on MCF7, 24 µM (inactive); with SNB-75, > 100 µM (inactive); in the test with UACC-257 it was > 100 µM (inactive); with MDA-MB-435, 49.1 µM (inactive); in the test with CAKI-1, > 100 µM (inactive). Also, the GI50 is > 100 µM (inactive) in the test on A498; > 100 µM (inactive) in the test with MDA-MB-231; > 100 µM (inactive) with OVCAR-4; > 100 µM (inactive) in the test with OVCAR-8; > 100 µM (inactive) in the test on SF-268; 69.8 µM (inactive) with HOP-92. Besides, the GI50 is > 100 µM (inactive) in the test with SF-539, > 100 µM (inactive) in the test with HT-29, 68.5 µM (inactive) in the test with COLO 205 and > 100 µM (inactive) in the test on HL-60.

For `COCN(CCC1=CCCCC1)C(=O)OC`, the GI50 with HCT-15 was more than 100 µM; in the test on MCF7, 43.1 µM (inactive); with SNB-75 it was > 100 µM (inactive); in the test with UACC-257 it was > 100 µM (inactive); in the test on K562 it was 61.5 µM (inactive); with MDA-MB-435 it was > 100 µM (inactive). Also, the GI50 in the test on CAKI-1 is > 100 µM (inactive); in the test on A498, > 100 µM (inactive); in the test on MDA-MB-231, > 100 µM (inactive); with OVCAR-3, 76.7 µM (inactive); with OVCAR-4, > 100 µM (inactive); in the test with OVCAR-8 it was > 100 µM (inactive). Also, the GI50 with SF-268, in the test on HOP-92, with RPMI-8226, in the test with HT-29 and in the test on COLO 205 was > 100 µM (inactive) each time.

As for `CNC(=O)Nc1cc2c3c(c1)CCCN3CCC2`, the GI50 with HCT-15 was more than 10 µM; in the test with MCF7, > 10 µM (inactive); in the test on SNB-75, > 10 µM (inactive); in the test with UACC-257, > 10 µM (inactive); with K562, > 10 µM (inactive); with MDA-MB-435, > 10 µM (inactive). Besides, the GI50 in the test with CAKI-1, with A498, in the test with MDA-MB-231, with OVCAR-3, in the test on OVCAR-4 and with OVCAR-8 was > 10 µM (inactive) each time. Also, the GI50 in the test with SF-268, with HOP-92, with RPMI-8226, in the test on SF-539, in the test with HT-29 and with COLO 205 was > 10 µM (inactive) throughout.

Consider `C/C(O)=C/C(=O)c1[nH]c(C(=O)O)cc1C1CCN(Cc2ccccc2)C1=O` (stereo not given), for which the GI50 with HCT-15 was 11 µM; in the test with MCF7 it was 22.1 µM (inactive); in the test on SNB-75 it was 20.8 µM (inactive); with UACC-257, 22.4 µM (inactive); with K562, 29.4 µM (inactive); in the test on MDA-MB-435 it was 27.3 µM (inactive). The GI50 was 42.3 µM (inactive) with CAKI-1; 41.1 µM (inactive) in the test with A498; 33.2 µM (inactive) with MDA-MB-231; 21.7 µM (inactive) in the test with OVCAR-3; 34 µM (inactive) in the test on OVCAR-4; 19.1 µM (inactive) with OVCAR-8. Also, the GI50 in the test with SF-268 was 20 µM (inactive); with HOP-92, 20.8 µM (inactive); in the test on RPMI-8226, 20.7 µM (inactive); in the test with HT-29, 29.2 µM (inactive); in the test with COLO 205, 18 µM (inactive).

As for `Cn1cnc([N+](=O)[O-])c1[Se]c1ncnc2nc[nH]c12`, the GI50 in the test on HCT-15 is 15.6 µM; in the test with MCF7 it was 13.6 µM (inactive); in the test on SNB-75, 19.6 µM (inactive); in the test on UACC-257, 2.04 µM (inactive); with K562, 4.07 µM (inactive); with MDA-MB-435 it was 2 µM (inactive). Besides, the GI50 with CAKI-1 is 0.925 µM (active); in the test with A498 it was 3.59 µM (inactive); with MDA-MB-231, 5 µM (inactive); in the test with OVCAR-3, 2 µM (inactive); in the test on OVCAR-4, 3.32 µM (inactive); in the test on OVCAR-8, 8.79 µM (inactive). The GI50 with SF-268 was 7.46 µM (inactive); in the test with HOP-92 it was 12.2 µM (inactive); in the test with RPMI-8226 it was 5.01 µM (inactive); in the test on SF-539, 13.4 µM (inactive); in the test with HT-29, 10 µM (inactive); in the test on COLO 205 it was 15.1 µM (inactive).

As for `C/C=C1/CN2[C@@H](C3=C[C@@H]4[C@@H]5N(C3=O)c3ccccc3[C@@]53CCN5C/C(=C/C)[C@@H]4C[C@H]53)C[C@@]34c5ccccc5N5C(=O)CC=C([C@H]1C[C@H]23)[C@H]54` [ISOSUNGUCINE], the GI50 is 2.33 µM with HCT-15; 3.46 µM (inactive) with MCF7; 7.91 µM (inactive) in the test on SNB-75; 1.24 µM (inactive) with UACC-257; 2.05 µM (inactive) in the test on K562; 5.01 µM (inactive) in the test on MDA-MB-435. The GI50 is 5.86 µM (inactive) in the test on CAKI-1; 6.92 µM (inactive) in the test with A498; 2.43 µM (inactive) in the test with MDA-MB-231; 5.85 µM (inactive) in the test on OVCAR-3; 6.43 µM (inactive) in the test on OVCAR-4; 3.91 µM (inactive) with OVCAR-8. For the same compound, the GI50 was 6.19 µM (inactive) in the test on SF-268; 5.55 µM (inactive) in the test with HOP-92; 1.11 µM (active) with SF-539; 2.11 µM (inactive) in the test with HT-29; 1.81 µM (inactive) in the test with COLO 205; 1.03 µM (active) in the test with HL-60.
